Experimental data reported in US6417235B2, “Method and use of α-amino-β-mercapto-ethane derivatives as dicarbonyl scavengers for treatment of conditions resulting from protein, lipid, and DNA damage” (University of Kentucky Research Foundation, priority 2000, dated 2002).

Tests used:
HaCat keratinocytes = assay: AGE-photosensitization of human skin cells, growth inhibition under solar simulated light; details: 10 mM
Protocol: Human HaCat keratinocytes growing on 35 mm dishes were exposed to solar simulated light (1.2 kJ/m^2 UVB and 23 kJ/m^2 UVA) in the presence or absence of AGE-BSA as a model of a protein with advanced glycation endproducts. Control populations were treated in exactly the same way as described above, but were not exposed to solar simulated light (SSL).

CF-3 cells = assay: Protection of fibroblasts from alpha-dicarbonyl stress (cell count after 72 hour exposure); format: cell-based, human
Protocol: (§1) A continuous cell line of human epidermal keratinocytes (HaCat cells) and human dermal fibroblasts (CF-3 cells) were routinely cultured in 75 cm^2 flasks and split biweekly in DMEM containing 10% fetal bovine serum and kept in a humidified atmosphere containing 5% CO2 at 37° C. Human keratinocytes were split using 5% trypsin and human fibroblasts employed 1% trypsin. All experiments were carried out on 6 well dishes (Falcon USA), where keratinocytes were seeded at 2×10^4 cells/well and fibroblasts at 4×10^4 cells/well. Cells were left overnight to attach to the plate and the appropriate carbonyl scavenger was then added 15 minutes prior to the addition of the alpha-dicarbonyl stress compounds glyoxal or methylglyoxal. Following 72 hour exposure to the stress compound, cells were counted with a Coulter counter. the protective effects of the alpha-dicarbonyl scavengers were assessed by comparing the growth of untreated cells with cells exposed to alpha-carbonyl stress +/− test compound.

[1] = system: glycation of histone H1 by ADP-ribose; assay: Screening of inhibitors of nonoxidative advanced glycation: AGE-fluorescence on 96 well-microtiter plate; format: biochemical, calf; details: (± SEM, n = 2); for AGE-fluorescence (day 5): complete reaction under air
Protocol: All operations were carried out at 4° C. Chromatin was isolated from fresh calf thymus by extraction with 0.14 M NaCl, 0.05 M Na2S2O5, as described earlier in Wondrak supra. After repeated extraction with 5% HCl)4 and centrifugation (1500 g), histone H1 was precipitated from the supernatant by addition of TCA (20% final concentration v/v). The histone H1 precipitate was colleted by centrifugation (12,000 g) and deionized water. After extensive dialysis (MW cut-off: 12,000-14,000) against water for 48 h, the sample was lyophilized and the protein was stored at 4° C. SDS-PAGE (12%) was used to analyze the purity of the preparation.
Earlier studies have reported that D-penicillamine inhibits collagen crosslinking and AGE fluorescence caused by sugars (McPherson, J. D., Shilton, B. H., and Walton, D. J. 1988. Role of Fructose in Glycation and Cross-Linking of Proteins. Biochemistry 27, 1901-1907) and reaction of D-penicillamine with aldehyde groups of proteins (Deshmukh, K., and Nimm, M. E. 1969. A Defect in the Intramolecular and Intermolecular Cross-linking of Collagen caused by Penicillamine. J. Biol. Chem. 244, 1787-1795). A number of different penicillamines and penicillamine derivatives were tested to determine the inhibition of AGE-fluorescence on histone H1 at physiological pH. The reaction conditions for the glycation of histone H1 by ADP-ribose mimic physiological conditions to the extent possible. Reaction mixtures contain 1.5 mg/ml histone Hl, 1.0 mM ADP-ribose, 50 mM potassium phosphate buffer, pH 7.4, 37° C. D,L-penicillamine; L-penicillamine; D-penicllamine; D-penicillaminedisulfide and N,S- isopropylidine-D-penicillamine were tested in concentrations of 1,5 and 10 mM. The detected reaction parameter representing the accumulation of protein damage is AGE-fluorescence ((λex=[…]), which is suppressed by the presence of a compound with inhibitory activity. Generation of AGE-type fluorescence (λex=355 nm; λem=405 nm) was monitored over time at 37° C; which is in the range of the broad excitation/emission maxima of AGE compounds. To allow high throughput sample processing on 96 well microtiter plates, the reaction volumes are 300 μl. Fluorescence on the 96-well microtiter plates was measured using an automated microtiter fluorescence reader. Fluorescence of the 1 ml samples of the glycation reaction mixtures was measured using a Hitachi F-200 fluorescence spectophotometer, and prior to measurement the protein sample is dialyzed extensively against water (MW cutoff=[…]), lyophilized and reconstituted in reaction buffer. For inhibitor screening the plate is read on a Fluoroskan II plate reader (Titertek, ICN) at the excitation/emission wavelengths set forth above at a bandwidth of 35 nm.
The following screening scheme is used (see Table 1): AGE-fluorescence is determined at the beginning and after five days of incubation. Test compounds that are inherently fluorescent (designated false negatives) were identified by the initial fluorescence measurement (See Table 1, NADH for example). Since these are compounds of uncertain activity, they are diverted directly to the second stage of the screen. Aminoguanidine, a known glycation inhibitory agent, was used as a positive control for suppression of the increase on AGE-fluorescence. After five days incubation and plate reading, fluorescence quenchers (designated false positives) are excluded by measuring the quenching activity of the test compound by addition of AGE modified protein having known fluorescence activity to one microtiter plate well containing test compound in the complete reaction mixture. For this, AGE-BSA is used as the AGE-type fluorescence standard. This AGE-BSA test excludes false positives compounds that function by fluorescence quenching. If fluorescence quenching occurs the test compound is excluded from further screening. […] The protein is visualized by silver staining of the gel. […]

ΦX-174 DNA = assay: AGE-BSA photosensitized cleavage of ΦX-174 DNA under solar simulated light; format: biochemical; details: solar simulated light, AGE-BSA as photosensitizer
Protocol: Glycated Proteins as Photosensitizers of DNA Damage in Skin Photoaging. D-Penicillamine inhibits genotoxic consequences of AGE-photosensitization. Accumulation of AGEs on dermal elastin and collagen occurs during normal skin aging in humans. The hypothesis was tested that the intra- and extracellular accumulation of the complex yellow-brown AGE-chromophores contributes to skin aging and carcinogenesis induced by chronic exposure to sunlight. As a possible molecular mechanisms for a detrimental synergism of AGE-formation and exposure to sunlight, photosensitized DNA damage by AGEs was assessed in a simple in vitro system. Irradiation of covalently closed circular ΦX-174 DNA with increasing doses of solar simulated light (SSL) in the presence of AGE-BSA was used to detect photosensitized DNA nicking as a measure of DNA photodamage (panel A). […] Addition of several antioxidants modulated the photosensitization effect (panel C).

HaCat cells = assay: Protection of keratinocytes from alpha-dicarbonyl stress (cell count after 72 hour exposure); format: cell-based, human
Protocol: as §1

Structure (SMILES): CC(C)(S)[C@@H](N)C(=O)O [D-Penicillamine]
- toxic effects on HaCat cells (HaCat keratinocytes): no toxic effects
- reversal of the photosensitization effect (HaCat keratinocytes; AGE-BSA with SSL): completely reversed the photosensitization effect
- protection from alpha-dicarbonyl stress (CF-3 cells; FIG. 14): protection
- protection from methylglyoxal induced alpha-dicarbonyl stress (CF-3 cells; FIG. 15): protection
- AGE-fluorescence (day 0) ([1]; compound 1 mM): 1.2 (0.0) relative units
- AGE-fluorescence (day 5) ([1]; compound 1 mM): 11 (0.6) relative units
- AGE-fluorescence (day 0) ([1]; compound 5 mM): 1.1 (0.1) relative units
- AGE-fluorescence (day 5) ([1]; compound 5 mM): 2.9 (0.3) relative units
- AGE-fluorescence (day 0) ([1]; compound 10 mM): 1.1 (0.0) relative units
- AGE-fluorescence (day 5) ([1]; compound 10 mM): 1.4 (0.1) relative units
- effect on AGE-BSA photosensitized DNA cleavage (ΦX-174 DNA): inhibited the photosensitization effect of AGE-BSA in a dose dependent relationship
- protection from alpha-dicarbonyl stress (HaCat cells; FIG. 14): protection
- protection from methylglyoxal induced alpha-dicarbonyl stress (HaCat cells; FIG. 15): protection
